Results as given in patent US20010044445A1, “AZOLE INHIBITORS OF CYTOKINE PRODUCTION” (priority 1999, published 2001).

Columns and labels:
[1] = test system: Human peripheral blood mononuclear cells; assay: Human Concanavalin-A Proliferation Assay (Con HU Assay); assay type: cell-based; conditions: Homo sapiens, PBMC, concanavalin-A stimulated human PBMC; for inhibition at 1 µM / inhibition at 10 µM: 72 h, 3 days, read-out: % Inhibition of proliferation (at concentrations of 1,10, or 100 μm); for inhibition at 1 µM: concentration 1 μm (in parentheses in the cell); for IC50: tritiated thymidine; for inhibition at 10 µM: concentration 10 μm (in parentheses in the cell)
Summary of the method: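 Proliferation read as tritiated thymidine uptake (0.5 μCi/well, 6 h pulse on day 3) in human PBMC cultured 3 days with 2.5 μg/ml (final) concanavalin-A. Cells, 50,000 per well in supplemented RPMI 1640 with 10% FBS, received compound 15 min before mitogen.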

| melting point | Compound | inhibition at 1 µM [1] | IC50 [1] | inhibition at 10 µM [1] |
| --- | --- | --- | --- | --- |
| 173 to 175 °C | O=C(Nc1ccccc1[N+](=O)[O-])c1ccc(-n2nc(C(F)(F)F)cc2C(F)(F)F)cc1 [Example 190, 4-[3,5-Bis(trifluoromethyl)-1H-pyrazol-1-yl]-N-(2-nitrophenyl)benzamide] | 3% | – | – |
| 192 to 193 °C | N#Cc1ccc(NC(=O)c2ccc(-n3nc(C(F)(F)F)cc3C(F)(F)F)cc2)cc1 [Example 193, 4-[3,5-Bis(trifluoromethyl)-1H-pyrazol-1-yl]-N-(4-cyanophenyl)benzamide] | 8% | – | – |
| 234 to 235 °C | O=C(Nc1ccncc1)c1ccc(-n2nc(C(F)(F)F)cc2C(F)(F)F)cc1 [Example 194, 4-[3,5-Bis(trifluoromethyl)-1H-pyrazol-1-yl]-N-(4-pyridinyl)benzamide] | 23% | – | – |
| 142 to 144 °C | O=C(Nc1ccc(-n2nc(C(F)(F)F)cc2C(F)(F)F)cc1)c1ccc(F)c(C(F)(F)F)c1 [Example 195, N-[4-[3,5-bis(trifluoromethyl)-1H-pyrazol-1-yl]phenyl]-4-fluoro-3-(trifluoromethyl)benzamide] | 22% | – | – |
| 186 to 187 °C | O=C(Nc1ccc(-n2nc(C(F)(F)F)cc2C(F)(F)F)cc1)c1ccc(F)c([N+](=O)[O-])c1 [Example 200, N-[4-[3,5-bis(trifluoromethyl)-1H-pyrazol-1-yl]phenyl]-4-fluoro-3-nitrobenzamide] | 26% | – | – |
| 150 to 152 °C | O=C(Nc1cccc(-n2nc(C(F)(F)F)cc2C(F)(F)F)c1)c1ccc(F)cc1 [Example 202, N-[3-[3,5-bis(trifluoromethyl)-1H-pyrazol-1-yl]phenyl]-4-fluorobenzamide] | 6% | – | – |
| 160 to 161 °C | N#Cc1cccc(C(=O)Nc2cccc(-n3nc(C(F)(F)F)cc3C(F)(F)F)c2)c1 [Example 204, N-[3-[3,5-bis(trifluoromethyl)-1H-pyrazol-1-yl]phenyl]-3-cyanobenzamide] | 12% | – | – |
| 154 to 156 °C | O=C(Nc1ccc(-n2nc(C(F)(F)F)cc2C(F)(F)F)cc1)c1cc(Cl)ccc1Cl [Example 208, N-[4-[3,5-bis(trifluoromethyl)-1H-pyrazol-1-yl]phenyl]-2,5-dichlorobenzamide] | – | 149 nM | 99% |
| 138 to 139 °C | O=C(Nc1ccc(-n2nc(C(F)(F)F)cc2C(F)(F)F)cc1)c1ccc(F)c(Cl)c1 [Example 210, N-[4-[3,5-bis(trifluoromethyl)-1H-pyrazol-1-yl]phenyl]-3-chloro-4-fluorobenzamide] | – | 239 nM | 100% |
| 168 to 169 °C | O=C(Nc1ccc(-n2nc(C(F)(F)F)cc2C(F)(F)F)cc1)c1cc(F)ccc1F [Example 211, N-[4-[3,5-bis(trifluoromethyl)-1H-pyrazol-1-yl]phenyl]-2,5-difluorobenzamide] | – | 39 nM | 98% |
| 165 to 167 °C | O=C(Nc1ccc(-n2nc(C(F)(F)F)cc2C(F)(F)F)cc1)c1c(F)cccc1Cl [Example 212, N-[4-[3,5-bis(trifluoromethyl)-1H-pyrazol-1-yl]phenyl]-2-chloro-6-fluorobenzamide] | – | 70 nM | 99% |
| 113 to 116 °C | O=C(Nc1ccc(-n2nc(C(F)(F)F)cc2C(F)(F)F)cc1)c1cccc(Cl)c1F [Example 214, N-[4-[3,5-bis(trifluoromethyl)-1H-pyrazol-1-yl]phenyl]-3-chloro-2-fluorobenzamide] | – | 68 nM | 100% |
| 183 to 185 °C | O=C(Nc1ccc(-n2nc(C(F)(F)F)cc2C(F)(F)F)cc1)c1ccc(F)c(F)c1 [Example 218, N-[4-[3,5-bis(trifluoromethyl)-1H-pyrazol-1-yl]phenyl]-3,4-difluorobenzamide] | – | 136 nM | 100% |
| 200 to 202 °C | O=C(Nc1ccc(-n2nc(C(F)(F)F)cc2C(F)(F)F)cc1)c1ccc(Cl)cc1O [Example 220, N-[4-[3,5-bis(trifluoromethyl)-1H-pyrazol-1-yl]phenyl]-4-chloro-2-hydroxybenzamide] | – | 4230 nM | 100% |
| 197 to 198 °C | COc1ccc(C(=O)Nc2ccc(-n3nc(C(F)(F)F)cc3C(F)(F)F)cc2)cc1Br [Example 221, N-[4-[3,5-bis(trifluoromethyl)-1H-pyrazol-1-yl]phenyl]-3-bromo-4-methoxybenzamide] | – | 411 nM | 98% |

Continued, compound first:

| Compound | melting point | inhibition at 1 µM [1] | IC50 [1] | inhibition at 10 µM [1] |
| --- | --- | --- | --- | --- |
| O=C(Nc1c(F)cccc1F)c1ccc(-n2nc(C(F)(F)F)cc2C(F)(F)F)cc1 [Example 191, 4-[3,5-Bis(trifluoromethyl)-1H-pyrazol-1-yl]-N-(2,6-difluorophenyl)benzamide] | 187 to 188 °C | 99% | 116 nM | – |
| NC(=O)c1ccccc1NC(=O)c1ccc(-n2nc(C(F)(F)F)cc2C(F)(F)F)cc1 [Example 196, N-[2-(aminocarbonyl)phenyl]-4-[3,5-bis(trifluoromethyl)-1H-pyrazol-1-yl]benzamide] | 195 to 196 °C | 11% | – | – |
| O=C(Cc1ccc(Cl)cc1)Nc1cccc(-n2nc(C(F)(F)F)cc2C(F)(F)F)c1 [Example 197, N-[3-[3,5-bis(trifluoromethyl)-1H-pyrazol-1-yl]phenyl]-4-chlorobenzeneacetamide] | 209 to 211 °C | 1% | – | – |
| O=C(Nc1cccc(-n2nc(C(F)(F)F)cc2C(F)(F)F)c1)c1cccc(Cl)c1Cl [Example 198, N-[3-[3,5-bis(trifluoromethyl)-1H-pyrazol-1-yl]phenyl]-2,3-dichlorobenzamide] | 119 to 121 °C | 4% | – | – |
| O=C(Nc1cccc(-n2nc(C(F)(F)F)cc2C(F)(F)F)c1)c1cc([N+](=O)[O-])ccc1Cl [Example 199, N-[3-[3,5-bis(trifluoromethyl)-1H-pyrazol-1-yl]phenyl]-2-chloro-5-nitrobenzamide] | 147 to 152 °C | 30% | – | – |
| O=C(Nc1ccc(-n2nc(C(F)(F)F)cc2C(F)(F)F)cc1)c1ccc(F)cc1C(F)(F)F [Example 201, N-[4-[3,5-bis(trifluoromethyl)-1H-pyrazol-1-yl]phenyl]-4-fluoro-2-(trifluoromethyl)benzamide] | 178 to 179 °C | – | 364 nM | 100% |
| O=C(Nc1cccc(-n2nc(C(F)(F)F)cc2C(F)(F)F)c1)c1ccc(F)cc1F [Example 203, N-[3-[3,5-bis(trifluoromethyl)-1H-pyrazol-1-yl]phenyl]-2,4-difluorobenzamide] | 133 to 134 °C | 1% | – | – |
| O=C(Nc1ccc(-n2nc(C(F)(F)F)cc2C(F)(F)F)cc1)c1ccc(F)cc1Cl [Example 206, N-[4-[3,5-bis(trifluoromethyl)-1H-pyrazol-1-yl]phenyl]-2-chloro-4-fluorobenzamide] | 155 to 157 °C | – | 61 nM | 100% |
| CS(=O)(=O)c1ccc(C(=O)Nc2ccc(-n3nc(C(F)(F)F)cc3C(F)(F)F)cc2)c(Cl)c1 [Example 207, N-[4-[3,5-bis(trifluoromethyl)-1H-pyrazol-1-yl]phenyl]-2-chloro-4-(methylsulfonyl)benzamide] | 219 to 220 °C | – | 372 nM | 100% |
| O=C(Nc1ccc(-n2nc(C(F)(F)F)cc2C(F)(F)F)cc1)c1c(F)cccc1C(F)(F)F [Example 213, N-[4-[3,5-bis(trifluoromethyl)-1H-pyrazol-1-yl]phenyl]-2-fluoro-6-(trifluoromethyl)benzamide] | 175 to 176 °C | – | 434 nM | 100% |
| COc1ccc(C(=O)Nc2ccc(-n3nc(C(F)(F)F)cc3C(F)(F)F)cc2)c(Cl)c1 [Example 215, N-[4-[3,5-bis(trifluoromethyl)-1H-pyrazol-1-yl]phenyl]-2-chloro-4-methoxybenzamide] | 140 to 143 °C | – | 126 nM | 100% |
| O=C(Nc1ccc(-n2nc(C(F)(F)F)cc2C(F)(F)F)cc1)c1c(Cl)ccc([N+](=O)[O-])c1Cl [Example 216, N-[4-[3,5-bis(trifluoromethyl)-1H-pyrazol-1-yl]phenyl]-2,6-dichloro-3-nitrobenzamide] | 160 to 161 °C | – | 267 nM | 100% |
| COc1ccc(Br)c(C(=O)Nc2ccc(-n3nc(C(F)(F)F)cc3C(F)(F)F)cc2)c1 [Example 219, N-[4-[3,5-bis(trifluoromethyl)-1H-pyrazol-1-yl]phenyl]-2-bromo-5-methoxybenzamide] | 179 to 181 °C | – | 214 nM | 100% |
| O=C(Nc1ccc(-n2nc(C(F)(F)F)cc2C(F)(F)F)cc1)c1cc(F)c(F)cc1Cl [Example 223, N-[4-[3,5-bis(trifluoromethyl)-1H-pyrazol-1-yl]phenyl]-2-chloro-4,5-difluorobenzamide] | 149 to 152 °C | – | 93 nM | 100% |
| O=C(Nc1cccc(-n2nc(C(F)(F)F)cc2C(F)(F)F)c1)c1c(F)cccc1F [Example 224, N-[3-[3,5-bis(trifluoromethyl)-1H-pyrazol-1-yl]phenyl]-2,6-difluorobenzamide] | 142 to 143 °C | 2% | – | – |
